Source: US11040976B2, “Substrate selective inhibitors of insulin-degrading enzyme (IDE) and uses thereof” (President and Fellows of Harvard College, priority 2015, dated 2021)

The molecules below were run against T1, recombinant human IDE42-1019 (Homo sapiens, UniProt P14735) (assay: Protease assay with fluorogenic peptide substrate Mca-[…](Dnp)-OH). Settings: fluorogenic peptide Mca-RPPGFSAFK(Dnp)-OH; apparent IC50 for compounds with submaximal inhibition; read-out: IC50 (μM) Proteolysis.
T1 construct: recombinant human IDE42-1019 (R&D Systems); purchased R&D Systems
T1 sequence (P14735 42-1019): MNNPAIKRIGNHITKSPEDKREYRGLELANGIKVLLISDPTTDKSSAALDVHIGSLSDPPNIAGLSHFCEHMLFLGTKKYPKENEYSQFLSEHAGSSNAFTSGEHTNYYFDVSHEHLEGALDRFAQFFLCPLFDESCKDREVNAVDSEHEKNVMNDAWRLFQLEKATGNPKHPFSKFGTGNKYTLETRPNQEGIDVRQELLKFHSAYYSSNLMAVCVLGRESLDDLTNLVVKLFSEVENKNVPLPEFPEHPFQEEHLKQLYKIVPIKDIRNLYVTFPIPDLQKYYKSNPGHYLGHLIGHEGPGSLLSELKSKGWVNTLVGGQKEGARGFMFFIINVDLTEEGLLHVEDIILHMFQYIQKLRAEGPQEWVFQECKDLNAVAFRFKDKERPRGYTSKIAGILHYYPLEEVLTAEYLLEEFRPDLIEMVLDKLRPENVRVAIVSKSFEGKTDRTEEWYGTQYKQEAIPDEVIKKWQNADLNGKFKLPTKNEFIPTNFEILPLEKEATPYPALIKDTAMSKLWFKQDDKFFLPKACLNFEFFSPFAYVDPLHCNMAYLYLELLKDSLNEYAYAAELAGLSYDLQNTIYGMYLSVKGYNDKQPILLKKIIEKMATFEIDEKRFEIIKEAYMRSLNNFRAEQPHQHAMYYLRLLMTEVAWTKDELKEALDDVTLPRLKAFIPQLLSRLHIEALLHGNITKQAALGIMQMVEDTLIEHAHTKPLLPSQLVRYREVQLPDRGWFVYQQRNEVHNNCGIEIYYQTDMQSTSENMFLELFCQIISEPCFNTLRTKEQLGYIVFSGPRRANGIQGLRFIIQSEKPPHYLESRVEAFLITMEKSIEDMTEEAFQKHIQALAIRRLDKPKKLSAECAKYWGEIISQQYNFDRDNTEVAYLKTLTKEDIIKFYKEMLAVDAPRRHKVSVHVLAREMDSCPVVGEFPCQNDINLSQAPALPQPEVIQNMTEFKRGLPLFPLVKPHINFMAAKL
Assay type: biochemical
Method: The proteases IDE42-1019, recombinant human IDE42-1019 (R&D Systems), neprilysin (R&D), and angiotensin-converting enzyme (R&D) were assayed using the fluorophore/quencher-tagged peptide substrate Mca-[…](Dnp)-OH (SEQ ID NO: 24) (R&D) according to the manufacturer's instructions and using the recommended buffers (fluorophore Mca=(7-methoxycourmarin-4-yl)acetyl and quencher Dnp=2,4-dinitrophenyl). For IDE the recommended buffer is 50 mM Tris pH 7.5, 1 M NaCl. The enzyme mixtures (48 μL) were transferred to a 96-well plate and combined with 2 μL of inhibitor in DMSO solutions, in 3-fold dilution series. The mixtures were allowed to equilibrate for 10 minutes and the enzymatic reaction was started by addition of substrate peptide in assay buffer (50 μL), mixed, and monitored on a fluorescence plate reader (excitation at 320 nm, emission at 405 nm). Similarly, thimet oligopeptidase (R&D) and neurolysin (R&D) were assayed using substrate Mca-PLGPK(Dnp)-OH (SEQ ID NO: 25) (R&D) according to the manufacturer's instructions and using the recommended buffers. Matrix metalloproteinase-1 (R&D) was activated and assayed according to the manufacturer's instructions with substrate Mca-KPLGL-Dpa-AR-NH2 (SEQ ID NO: 20) (R&D) (quencher DPA=N-3-(2,4,dinitrophenyl)-L-2,3-diaminopropionyl). All assay data points were obtained in duplicate.

Row | SMILES | IC50
1 | Cc1cccc(-c2ccc(C3CCN(S(=O)(=O)c4ccc5c(c4)OCCO5)CC3)cc2)c1C [A01] | > 30 µM
2 | Cc1cccc(-c2ccc(C3CCN(S(=O)(=O)c4ccc5c(c4)OCO5)CC3)cc2)c1C [A02] | 12 µM
3 | Cc1cccc(-c2ccc(C3CCN(S(=O)(=O)c4cc5ccccc5o4)CC3)cc2)c1C [A03] | > 100 µM
4 | Cc1cccc(-c2ccc(C3CCN(S(=O)(=O)c4ccccc4Oc4ccccc4)CC3)cc2)c1C [A04] | 12 µM
5 | Cc1cccc(-c2ccc(C3CCN(S(=O)(=O)c4cccc(Oc5ccc(F)cc5)c4)CC3)cc2)c1C [A05] | 9 µM
6 | Cc1cccc(-c2ccc(C3CCN(S(=O)(=O)c4cccc(C(=O)N(C)C)c4)CC3)cc2)c1C [A06] | 1 µM
7 | Cc1cccc(-c2ccc(C3CCN(S(=O)(=O)c4ccc(F)c5ncccc45)CC3)cc2)c1C [A07] | 3 µM
8 | Cc1cccc(-c2ccc(C3CCN(S(=O)(=O)c4ccc5c(c4)Cc4ccccc4-5)CC3)cc2)c1C [A08] | 25 µM
9 | Cc1cccc(-c2ccc(C3CCN(S(=O)(=O)c4ccc5c(c4)CCC(=O)N5)CC3)cc2)c1C [A10] | 33 µM
10 | Cc1cccc(-c2ccc(C3CCN(S(=O)(=O)c4cccc5c(N(C)C)cccc45)CC3)cc2)c1C [A11] | 10 µM
11 | Cc1cc2c(cc1S(=O)(=O)N1CCC(c3ccc(-c4cccc(C)c4C)cc3)CC1)OCC(=O)N2 [A13] | 10 µM
12 | Cc1cccc(-c2ccc(C3CCN(S(=O)(=O)c4ccc5c(ccn5C)c4)CC3)cc2)c1C [A14] | 10 µM
13 | Cc1cccc(-c2ccc(C3CCN(S(=O)(=O)c4ccc5[nH]c(=O)[nH]c5c4)CC3)cc2)c1C [A15] | 4 µM
14 | Cc1cccc(-c2ccc(C3CCN(S(=O)(=O)c4cccnc4)CC3)cc2)c1C [A16] | 12 µM
15 | Cc1cccc(-c2ccc(C3CCN(S(=O)(=O)CCc4ccncc4)CC3)cc2)c1C [A17] | 5 µM
16 | Cc1cccc(-c2ccc(C3CCN(S(=O)(=O)c4cc(C(F)(F)F)cc(C(F)(F)F)c4)CC3)cc2)c1C [A18] | 12 µM
17 | Cc1cccc(-c2ccc(C3CCN(S(=O)(=O)N4CC(C)OC(C)C4)CC3)cc2)c1C (centres unmarked) [A19] | 4 µM
18 | COc1ccc(C(=O)N2CCC(c3ccc(-c4cccc(C)c4C)cc3)CC2)c(OC)c1 [A21] | 1 µM

Row | SMILES | IC50
19 | Cc1cccc(-c2ccc(C3CCN(C(=O)c4cccc(OCc5ccccc5)c4)CC3)cc2)c1C [A22] | 1 µM
20 | Cc1cccc(-c2ccc(C3CCN(C(=O)c4ccccc4Oc4ccccc4)CC3)cc2)c1C [A23] | 10 µM
21 | Cc1cccc(-c2ccc(C3CCN(C(=O)c4ccc5c(c4)OCCN5C)CC3)cc2)c1C [A25] | 0.9 µM
22 | Cc1cccc(-c2ccc(C3CCN(C(=O)c4ccc5occc5c4)CC3)cc2)c1C [A26] | 6 µM
23 | Cc1cccc(-c2ccc(C3CCN(C(=O)C4c5ccccc5-c5ccccc54)CC3)cc2)c1C [A27] | 12 µM
24 | Cc1cccc(-c2ccc(C3CCN(C(=O)c4ccc5ccccc5n4)CC3)cc2)c1C [A28] | 1 µM
25 | Cc1cccc(-c2ccc(C3CCN(C(=O)Oc4cccc5ccccc45)CC3)cc2)c1C [A29] | > 50 µM
26 | Cc1cccc(-c2ccc(C3CCN(C(=O)Oc4ccc5ccccc5c4)CC3)cc2)c1C [A30] | 12 µM
27 | Cc1cccc(-c2ccc(C3CCN(Cc4ccc(Oc5ccccc5)cc4)CC3)cc2)c1C [A31] | 12 µM
28 | Cc1cccc(-c2ccc(C3CCN(Cc4cccc(Oc5ccccc5)c4)CC3)cc2)c1C [A32] | 12 µM
29 | Cc1cccc(-c2ccc(C3CCN(Cc4ccccc4Oc4ccccc4)CC3)cc2)c1C [A33] | 7 µM
30 | Cc1cccc(-c2ccc(C3CCN(Cc4ccc(OCc5ccccc5)cc4)CC3)cc2)c1C [A34] | > 50 µM
31 | Cc1cccc(-c2ccc(C3CCN(Cc4ccc(F)c5ccccc45)CC3)cc2)c1C [A35] | 12 µM
32 | Cc1cccc(-c2ccc(C3CCN(Cc4ccc5ccccc5n4)CC3)cc2)c1C [A39] | 12 µM
33 | Cc1cccc(-c2ccc(C3CCN(C(=O)c4ccc5c(c4)C4(OC5=O)c5ccc(O)cc5Oc5cc(O)ccc54)CC3)cc2)c1C [A40] | 12 µM
34 | O=C(c1ccncc1)N1CC2NC(C1)C2c1ccc(/C=C/c2ccccc2)cc1 (centres unmarked) [C10] | 10 µM
35 | Cc1cccc(-c2ccc([C@H]3C4CNC/C=C\CN4[C@@H]3CO)cc2)c1C (some centres unmarked) [Int211] | > 10 µM

Second part, the molecule after the results:

Row | IC50 | SMILES
36 | 0.2 µM | Cc1cccc(-c2ccc([C@@H]3[C@@H](CO)N4C/C=C\CN(S(=O)(=O)c5ccccc5C)C[C@@H]34)cc2)c1 [B1]
37 | 0.4 µM | Cc1cccc(-c2ccc([C@@H]3[C@@H](CO)N4CCCCN(S(=O)(=O)c5ccccc5C)C[C@@H]34)cc2)c1 [B2]
38 | 0.2 µM | Cc1ccc(-c2ccc([C@@H]3[C@@H](CO)N4CCCCN(S(=O)(=O)c5ccccc5C)C[C@@H]34)cc2)cc1C [B3]
39 | 7.5 µM | Cc1ccccc1S(=O)(=O)N1CCCCN2[C@H](CO)[C@@H](c3ccc(-c4cccc(C(F)(F)F)c4)cc3)[C@@H]2C1 [B5]
40 | 1 µM | Cc1ccccc1S(=O)(=O)N1CCCCN2[C@H](CO)[C@@H](c3ccc(-c4ccccc4)cc3)[C@@H]2C1 [B6]
41 | 7.5 µM | Cc1ccccc1S(=O)(=O)N1CCCCN2[C@H](CO)[C@@H](c3ccc(-c4cccc(O)c4)cc3)[C@@H]2C1 [B7]
42 | 0.25 µM | Cc1cccc(-c2ccc([C@@H]3[C@@H](CO)N4CCCCN(S(=O)(=O)c5ccccc5C)C[C@@H]34)cc2)c1 [BRD-297]
43 | 7 µM | CCC(=O)N1[C@H](CO)[C@H](c2ccc(-c3ccccc3OC)cc2)[C@@H]1CNC(C)=O [D3]
44 | > 20 µM | CCC(=O)N1[C@H](CO)[C@H](c2ccc(-c3ccccc3OC)cc2)[C@H]1CNC(C)=O [D4]
45 | 7.5 µM | COc1ccccc1-c1ccc([C@H]2[C@@H](CO)N[C@@H]2CNC(=O)C2CCCC2)cc1 [D5]
46 | 5 µM | COc1ccccc1-c1ccc([C@@H]2[C@@H](C#N)N(C(=O)CN(C)C)[C@H]2CO)cc1 [D6]
47 | 1 µM | Cc1ccccc1S(=O)(=O)N1CCN(c2ccc(-c3cccc(C)c3C)cc2)CC1 [J1]
48 | 2.5 µM | Cc1ccccc1S(=O)(=O)N1CCC(O)(c2ccc(-c3cccc(C)c3C)cc2)CC1 [J2]

Same assay, conditions: fluorogenic peptide Mca-RPPGFSAFK(Dnp)-OH; plateau at high inhibitor concentration

Row | Imax (%) Proteolysis (inhibition maximum) | SMILES
49 | 65% | Cc1cccc(-c2ccc([C@@H]3[C@@H](CO)N4CCCCN(S(=O)(=O)c5ccccc5C)C[C@@H]34)cc2)c1 [B2]
50 | 65% | Cc1ccccc1-c1ccc([C@@H]2[C@@H](CO)N3CCCCN(S(=O)(=O)c4ccccc4C)C[C@@H]23)cc1 [B13]

Same assay, conditions: fluorogenic peptide Mca-RPPGFSAFK(Dnp)-OH; plateau at high inhibitor concentration; read-out: Imax (%) Proteolysis (inhibition maximum)

Row | SMILES | Emax
51 | O=C(c1ccncc1)N1CC2NC(C1)C2c1ccc(/C=C/c2ccccc2)cc1 (centres unmarked) [C10] | 100%
52 | Cc1cccc(-c2ccc([C@@H]3[C@H](CO)N4CCCCN(S(=O)(=O)c5ccccc5F)C[C@@H]34)cc2)c1 [Compound 807] | 30%

More lines, now with the values ahead:

Row | Emax | SMILES
53 | 72% | Cc1ccc(-c2ccc([C@@H]3[C@@H](CO)N4CCCCN(S(=O)(=O)c5ccccc5C)C[C@@H]34)cc2)cc1C [B3]
54 | 100% | Cc1ccccc1S(=O)(=O)N1CCCCN2[C@H](CO)[C@@H](c3ccc(-c4ccc5c(c4)OCO5)cc3)[C@@H]2C1 [B4]
55 | 65% | Cc1ccccc1S(=O)(=O)N1CCCCN2[C@H](CO)[C@@H](c3ccc(-c4ccccc4)cc3)[C@@H]2C1 [B6]
56 | 100% | Cc1ccccc1S(=O)(=O)N1CCCCN2[C@H](CO)[C@@H](c3ccc(-c4cccc(O)c4)cc3)[C@@H]2C1 [B7]
57 | 72% | Cc1cc(C)cc(-c2ccc([C@@H]3[C@@H](CO)N4CCCCN(S(=O)(=O)c5ccccc5C)C[C@@H]34)cc2)c1 [B9]
58 | 65% | Cc1ccccc1S(=O)(=O)N1CCCCN2[C@H](CO)[C@@H](c3ccc(-c4cccc(F)c4)cc3)[C@@H]2C1 [B10]
59 | 65% | Cc1ccccc1-c1ccc([C@@H]2[C@@H](CO)N3CCCCN(S(=O)(=O)c4ccccc4C)C[C@@H]23)cc1 [B11]
60 | 65% | Cc1ccc(C)c(-c2ccc([C@@H]3[C@@H](CO)N4CCCCN(S(=O)(=O)c5ccccc5C)C[C@@H]34)cc2)c1 [B12]
61 | 90% | Cc1ccccc1S(=O)(=O)N1CCCCN2[C@H](CO)[C@@H](c3ccc(-c4cccc(F)c4F)cc3)[C@@H]2C1 [B14]
62 | 50% | CCC(=O)N1[C@H](CO)[C@H](c2ccc(-c3ccccc3OC)cc2)[C@@H]1CNC(C)=O [D3]
63 | 60% | COc1ccccc1-c1ccc([C@H]2[C@@H](CO)N[C@@H]2CNC(=O)C2CCCC2)cc1 [D5]
64 | 70% | COc1ccccc1-c1ccc([C@@H]2[C@@H](C#N)N(C(=O)CN(C)C)[C@H]2CO)cc1 [D6]

Same assay, conditions: fluorogenic peptide, FIG. 12; read-out: IC50 for proteolysis

Row | IC50 | SMILES
65 | 0.002 µM | Cc1ccccc1S(=O)(=O)N1CCCCN2[C@H](CO)[C@@H](c3ccc(-c4cccc(C)c4C)cc3)[C@@H]2C1 [B8]
